Columns and labels:
Type in all cases: cell-based
[1] = tested on: TGF-β1; test: Levels of latent and activated TGF-β1 in extracellular media of smooth muscle cell cultures (ELISA); conditions: human aortic smooth muscle cells, 0.2% foetal calf serum; after 14 hours of contact with the cells
Description: The effect of the compounds of formula (I) upon the increase of the levels of TGF-β1 was evaluated with the aid of tests upon the smooth muscle cells, as well as upon the blood levels and the diaphragms in the rat after administration of the representative compounds of the invention.
Both latent TGF-β1 and activated TGF-β1 were determined on the smooth muscle cells by incubation with hydrochloric acid.
40,000 smooth muscle cells isolated from the human aorta (supplier: CLONETICS) are placed, in a […], in a medium containing 2 ml of DMEM (Dulbecco Modified Eagle Medium containing 4.5 g/l of glucose, 3.7 g/l of NaHCO3 and not containing any L-glutamine or Na-pyruvate). […]
Dishes containing cells are prepared as described in Preparation 1. […] The activated TGF-β1 is determined directly in the supernatants of the culture, but the latent TGF-β1 is determined after activation. […]
Dishes containing cells are prepared as in PREPARATION 1. The levels of TGF-β1 are measured as described in PREPARATION 2. The levels of activated TGF-β1 are measured in the extracellular media in the presence of SR 57746A after 1, 3, 14, 24 and 48 hours and 7 days of contact with the cells, in comparison with the controls (0.2% foetal calf serum and 20% foetal calf serum) by the method described in PREPARATION 2.

[2] = tested on: smooth muscle cells isolated from the human aorta; test: Anti-apoptotic effect, apoptosis induced by NGF (oligonucleosome ELISA); conditions: NGF 0.01 ng/ml to 100 ng/ml; after 24 hours of contact with the cells
Description: (§1) The anti-apoptotic activity was measured on the same cells vis-à-vis the pro-apoptotic activity of a deprivation in serum or after the addition of toxic compounds such as vincristine or growth factors such as nerve growth factor (NGF) with the aid of a specific ELISA (enzyme-linked immunosorbent assay) determination kit which detects the presence of oligonucleosomes the presence of which inside the cells is a specific marker of programmed cell death (apoptosis), according to the method described by Del Bino G. et al., (Experimental Cell Research, 193, 27, 1991 and 195, 485, 1991) or Darzynkiewicz A et al., (Cytometry, 13, 795, 1992).
(§2) 40,000 smooth muscle cells isolated from the human aorta (supplier: CLONETICS) are placed, in a […], in a medium containing 2 ml of DMEM (Dulbecco Modified Eagle Medium containing 4.5 g/l of glucose, 3.7 g/l of NaHCO3 and not containing any L-glutamine or Na-pyruvate). 20% v/v of foetal calf serum which was desupplemented for 30 min at […] , 4 mM L-glutamine, 50 U/ml of penicillin and 50 μg/ml of streptomycin are added. The cells are left in this medium for a growth period of three days before submitting them to tests according to the examples given further on.
(§3) Dishes containing the cells are prepared as in PREPARATION 1. Apoptosis is induced by three different methods:
b) by adding increasing doses of NGF (0.01 ng/ml to 100 ng/ml) to the medium described in PREPARATION 1;
(§4) By an ELISA determination test of the mono- and oligo-nucleosomes associated with cytoplasmic histones after washing and cellular lysis, the effects of the compounds of the invention upon the apoptosis are measured after 24 hours of contact with the cells in comparison with the levels of apoptosis obtained in the absence of products (maximum apoptosis level) or in the presence of 20% foetal calf serum (minimum apoptosis level).
Dishes containing cells are prepared as in PREPARATION 1. Apoptosis is induced according to method b) of PREPARATION 4. The apoptosis levels are measured after 24 hours of contact with the cells by the method described in PREPARATION 4; the same controls as in PREPARATION 4 are used.

[3] = tested on: smooth muscle cells isolated from the human aorta; test: Anti-apoptotic effect, apoptosis induced by vincristine (oligonucleosome ELISA); conditions: Vincristin 0.1 pg/ml to 10 ng/ml; after 24 hours of contact with the cells
Description: as §1, §2, §3
c) by adding increasing doses of Vincristin (0.1 pg/ml to 10 ng/ml) to the medium described in PREPARATION 1.
as §4
Dishes containing cells are prepared as described in PREPARATION 1. Apoptosis is induced according to method c) of PREPARATION 4. The levels of apoptosis are measured after 24 hours of contact with the cells by the method described in PREPARATION 4; the same controls as in PREPARATION 4 are used.

Row | Structure (SMILES) | levels of activated TGF-β1 in the extracellular media [1] | pro-apoptotic effect of NGF [2] | pro-apoptotic effect of vincristine [3]
1 | FC(F)(F)c1cccc(C2=CCN(CCc3ccc4ccccc4c3)CC2)c1 [SR 57746, 1-(2-naphth-2-ylethyl)-4-(3-trifluoromethylphenyl)-1,2,3,6-tetrahydropyridine] | significant increase | significantly inhibit | significantly inhibit
2 | CCc1ccc(CCN2CC=C(c3cccc(C(F)(F)F)c3)CC2)cc1CC [compound A, 1-[2-(3,4-diethylphenyl)ethyl]-4-(3-trifluoromethylphenyl)-1,2,3,6-tetrahydropyridine] |  | significantly inhibit | significantly inhibit
3 | O=C(CN1CC=C(c2cccc(C(F)(F)F)c2)CC1)c1ccc(-c2ccccc2)cc1 [compound B, 1-[2-(biphenyl-4-yl)-2-oxoethyl]-4-(3-trifluoromethylphenyl)-1,2,3,6-tetrahydropyridine] |  | significantly inhibit | significantly inhibit
4 | FC(F)(F)c1cccc(C2=CCN(CCc3ccc(-c4ccccc4)cc3)CC2)c1 [compound C, 1-[2-(biphenyl-4-yl)ethyl]-4-(3-trifluoromethylphenyl)-1,2,3,6-tetrahydropyridine] |  | significantly inhibit | significantly inhibit
5 | FC(F)(F)c1cccc(C2=CCN(CCc3ccc4cc5c(cc4c3)OCO5)CC2)c1 [compound D, 1-[2-(6,7-methylenedioxynaphth-2-yl)ethyl]-4-(3-trifluoromethylphenyl)-1,2,3,6-tetrahydropyridine] |  | significantly inhibit | significantly inhibit
6 | FC(F)(F)c1cccc(C2=CCN(CCc3ccc(C4=CCCCC4)cc3)CC2)c1 [compound E, 1-[2-(4-cyclohexenylphenyl)ethyl]-4-(3-trifluoromethylphenyl)-1,2,3,6-tetrahydropyridine] |  | significantly inhibit | significantly inhibit
7 | FC(F)(F)c1ccccc1C1=CCN(CCc2ccc(-c3ccccc3)cc2)CC1 [compound F, 1-[2-(biphenyl-4-yl)ethyl]-4-(2-trifluoromethylphenyl)-1,2,3,6-tetrahydropyridine] |  | significantly inhibit | significantly inhibit

Reference: US6693118B2, “Use of 4-substituted tetrahydropyridines for the manufacture of medicaments acting upon TGF-β1” (Sanofi-Synthelabo, priority 1997, dated 2004)
